Laboratory results taken from patent US20250289826A1, “PLPRO PROTEIN INHIBITOR, AND PREPARATION METHOD AND APPLICATION THEREOF” (priority 2022, published 2025).
“And” between values parts separate entries of the source, which are not always exact repeats. Equal values may be shown once.

Experiments:
PLpro = PLpro (Severe acute respiratory syndrome coronavirus 2 (2019-nCoV) (SARS-CoV-2), UniProt P0DTD1); test: Assay for PLpro inhibitory activity (Ub-AMC fluorescence; single point inhibition test and IC50 determination); format: biochemical; conditions: for IC50: fluorescence measured after 15 min of reaction; for inhibition at 1 µM: read-out: inhibition of PLpro (1 μM), 1 μM test compound, 100 nM PLpro, 10 μM Ub-AMC, 37° C. 30 min
[1] = system: SARS-CoV-2 live virus (Delta strain); test: microbe, parasite or virus in culture; format: cell-based
[2] = Severe acute respiratory syndrome coronavirus 2, Calu-3, 48 h

| SMILES | IC50 (PLpro) [nM] | inhibition at 1 µM (PLpro) [%] | other results |
| --- | --- | --- | --- |
| Cc1ccc(N2CC(N(C)C)C2)cc1C(=O)NC1(c2ccc(F)c3ncccc23)CC1 [Example C26] | 38.3 ± 5.27 | 95.9 | Inhibition rate/% ([1]; 3.125 nM, Calu-3 cells, Delta strain, 48 h, three replicate values): 2.076% and 45.3104% and −0.0016%; Inhibition rate/% ([1]; 6.25 nM, Calu-3 cells, Delta strain, 48 h, three replicate values): 37.9405% and 58.6715% and 67.2927%; Inhibition rate/% ([1]; 12.5 nM, Calu-3 cells, Delta strain, 48 h, three replicate values): −4.0599% and 50.6792% and 17.0436%; Inhibition rate/% ([1]; 25 nM, Calu-3 cells, Delta strain, 48 h, three replicate values): −64.656% and 17.2863% and 31.5856%; Inhibition rate/% ([1]; 50 nM, Calu-3 cells, Delta strain, 48 h, three replicate values): 92.4972% and 64.3219% and 67.0889%; Inhibition rate/% ([1]; 100 nM, Calu-3 cells, Delta strain, 48 h, three replicate values): 93.9064% and 96.0939%; Inhibition rate/% ([1]; 200 nM, Calu-3 cells, Delta strain, 48 h, three replicate values): 99.5887% and 99.6848%; Inhibition rate/% ([1]; 400 nM, Calu-3 cells, Delta strain, 48 h, three replicate values): 99.9327% and 99.8544%; EC50 [1, 2]: 36.3 ± 4.11 nM; EC90 [1, 2]: 73.1 ± 7.23 nM; inhibition at 0.1 µM ([1]; Severe acute respiratory syndrome coronavirus 2, Calu-3, 48 h, 100 nM, Calu-3 cells, Delta strain, 48 h, three replicate values, read-out: Inhibition rate/%): 92.2%; inhibition at 0.2 µM ([1]; Severe acute respiratory syndrome coronavirus 2, Calu-3, 48 h, 200 nM, Calu-3 cells, Delta strain, 48 h, three replicate values, read-out: Inhibition rate/%): 99.9%; inhibition at 0.4 µM ([1]; Severe acute respiratory syndrome coronavirus 2, Calu-3, 48 h, 400 nM, Calu-3 cells, Delta strain, 48 h, three replicate values, read-out: Inhibition rate/%): 100%; inhibition of SARS-CoV-2 live virus infecting human cells (in words) ([1]; in vitro experiment): can effectively inhibit SARS-CoV-2 live virus from infecting human cells |
| Cc1ccc(N2CC(N(C)C)C2)cc1C(=O)NC1(c2ccc(C)c3ncccc23)CC1 [Example C75] | 4.71 ± 1.38 | 99.4 |  |
| COc1ccc(C2(NC(=O)c3cc(N4CC(N(C)C)C4)ccc3C)CC2)c2cccnc12 [Example C76] | 15.9 ± 3.25 | 99.6 |  |
| Cc1ccc(N2CC(N(C)C)C2)cc1C(=O)NC1(c2cccc3c2OCCO3)CC1 [Example C77] |  | 63 |  |
| Cc1ccc(N2CC(N(C)C)C2)cc1C(=O)NC1(c2cccc3c2OCO3)CC1 [Example C78] |  | 25.4 |  |
| Cc1ccc(Br)cc1/C=N/C1(c2ccc(F)c3ncccc23)CC1 [Example C79] |  | 16.5 |  |
| Cc1ccc(N2CC(N(C)C)C2)cc1/C=N/C1(c2ccc(F)c3ncccc23)CC1 [Example C80] |  | 11.9 |  |
| Cc1ccc(N2CC(CN)C2)cc1C(=O)NC1(c2ccc(F)c3ncccc23)CC1 [Example C81] |  | 37.1 |  |
| Cc1ccc(N2CC(C(C)(C)N)C2)cc1C(=O)NC1(c2ccc(F)c3ncccc23)CC1 [Example C82] |  | 8.2 |  |
| Cc1ccc(N2CC(CN(C)C)C2)cc1C(=O)NC1(c2ccc(F)c3ncccc23)CC1 [Example C83] |  | 24.2 |  |
| Cc1ccc(N2CC(N(C)C)C2)cc1CNC1(c2ccc(F)c3ncccc23)CC1 [Example C85] |  | 45.7 |  |
| Cc1ccc(N)cc1CNC1(c2ccc(F)c3ncccc23)CC1 [Example C86] |  | 33.5 |  |
| Cc1ccc(N)cc1C(=O)NC1(c2ccc(F)c3ncccc23)CC1 [Example C87] |  | 23.1 |  |
| Cc1ccc(N2CC(N(C)C)C2)cc1C(=O)NC1(c2ccc(N(C)C)c3ccccc23)CC1 [Example C88] | 175 | 96.2 |  |
| Cc1ccc2c(C3(NC(=O)c4cc(N5CC(N(C)C)C5)ccc4C)CC3)ccc(F)c2n1 [Example C89] | 119 | 82 |  |
| [2H]C1([2H])C(N(C)C)C([2H])([2H])N1c1ccc(C)c(C(=O)NC2(c3ccc(F)c4ncccc34)CC2)c1 [Example C90] | 69.8 | 85 |  |
| Cc1ccc(N2CC(N(C)C)C2)cc1C(=O)NC1(c2cccc3c2ccn3C)CC1 [Example C91] |  | 71 |  |
